Source: PubChem BioAssay AID338 (DTP/NCI, 2004)
Where “and” joins values, the source holds several entries; their conditions need not be identical. Identical values can stand only once. Inconclusive results and toxic doses are left out.

Tested on: BDF1 mice, P388 leukemia (terephthalanilide-resistant), survival T/C
Assay: NCI In Vivo Anticancer Drug Screen. Data for tumor model P388 Leukemia resistant to A Terephthalanilide; NSC 38280 (intraperitoneal) in B6D2F1 (BDF1) mice
Conditions: endpoint: median survival time, schedule: Q01DX010 (ip), vehicle: saline, higher = longer survival
Description: The antitumor activity of compounds was measured in mice bearing transplantable tumors. Survival or tumor size were measured and the results are expressed as the measurement made in the treated group (T) divided by the measurement made in the vehicle treated control group (C). The tumor model used in this assay is P388 Leukemia resistant to A Terephthalanilide; NSC 38280 (intraperitoneal) in B6D2F1 (BDF1) mice

`Clc1ncnc2nc[nH]c12` was tested, and the T/C (dose: 7.5 mg/kg/injection) was 87 % of control, the T/C (dose: 15.0 mg/kg/injection) was 87 % of control and 93 % of control and the T/C (dose: 30.0 mg/kg/injection) was 87 % of control and 106 % of control. For the same compound, the T/C (dose: 60.0 mg/kg/injection) was 93 % of control.
For `CC1CCOS(=O)O1` (stereo not given), the T/C (dose: 10.0 mg/kg/injection) was 100 % of control, the T/C (dose: 20.0 mg/kg/injection) was 95 % of control and the T/C (dose: 40.0 mg/kg/injection) was 100 % of control.
With `NC(=O)N(CCCl)N=O` the T/C (dose: 0.5 mg/kg/injection) was 172 % of control, the T/C (dose: 1.0 mg/kg/injection) was 172 % of control and the T/C (dose: 2.0 mg/kg/injection) was 109 % of control.
With `CS(=O)(=O)OCCCl` the T/C (dose: 18.8 mg/kg/injection) was 105 % of control, the T/C (dose: 37.5 mg/kg/injection) was 110 % of control and 111 % of control and the T/C (dose: 75.0 mg/kg/injection) was 111 % of control and 115 % of control. For the same compound, the T/C (dose: 150.0 mg/kg/injection) was 110 % of control and 122 % of control.
In the case of `C[C@@H]1C[C@@H]([C@H](O)CC2CC(=O)NC(=O)C2)C(=O)[C@@H](C)C1`, the T/C (dose: 5.0 mg/kg/injection) is reported as 93 % of control and 100 % of control, the T/C (dose: 10.0 mg/kg/injection) is reported as 100 % of control and the T/C (dose: 20.0 mg/kg/injection) is reported as 100 % of control. The T/C (dose: 40.0 mg/kg/injection) was 112 % of control.
For `Nc1cc(C(=O)Nc2ccc(C3=NCCN3)cc2)cc(C(=O)Nc2ccc(C3=NCCN3)cc2)c1`, the T/C (dose: 16.0 mg/kg/injection) was 111 % of control and the T/C (dose: 64.0 mg/kg/injection) was 183 % of control.
`CC(=O)Nc1ccc2nc3ccc(NC(C)=O)cc3[n+](-c3ccccc3)c2c1` was tested, and the T/C (dose: 7.8 mg/kg/injection) was 90 % of control and the T/C (dose: 15.6 mg/kg/injection) was 90 % of control.
For `Nc1nc(=S)c2[nH]cnc2[nH]1`, the T/C (dose: 1.25 mg/kg/injection) was 162 % of control, the T/C (dose: 2.5 mg/kg/injection) was 150 % of control and 175 % of control and the T/C (dose: 10.0 mg/kg/injection) was 112 % of control.
For `CC1CN=C(c2ccc(NC(=O)c3ccc(C(=O)Nc4ccc(C5=NCC(C)N5)cc4)cc3)cc2)N1` (stereo not given), the T/C (dose: 10.0 mg/kg/injection) was 111 % of control, the T/C (dose: 15.0 mg/kg/injection) was 111 % of control and the T/C (dose: 22.0 mg/kg/injection) was 111 % of control. For the same compound, the T/C (dose: 33.0 mg/kg/injection) was 111 % of control.
With `N=[N+]=CC(=O)OCC(N)C(=O)O` (stereo not given) the T/C (dose: 12.5 mg/kg/injection) was 115 % of control and 116 % of control and the T/C (dose: 25.0 mg/kg/injection) was 88 % of control.
In the case of `CNc1nc(Nc2ccc(C3=NCCN3)cc2)nc(Nc2ccc(C3=NCCN3)cc2)n1`, the T/C (dose: 13.3 mg/kg/injection) is reported as 117 % of control, the T/C (dose: 20.0 mg/kg/injection) is reported as 111 % of control and the T/C (dose: 30.0 mg/kg/injection) is reported as 117 % of control.
In the case of `O=C(Nc1ccc(C2=NCCN2)cc1)c1cc(Cl)cc(C(=O)Nc2ccc(C3=NCCN3)cc2)c1`, the T/C (dose: 140.0 mg/kg/injection) is reported as 100 % of control, the T/C (dose: 210.0 mg/kg/injection) is reported as 100 % of control and the T/C (dose: 315.0 mg/kg/injection) is reported as 100 % of control. For the same compound, the T/C (dose: 473.0 mg/kg/injection) was 94 % of control.
`CN(N=O)C(N)=O` was tested, and the T/C (dose: 5.0 mg/kg/injection) was 113 % of control and the T/C (dose: 20.0 mg/kg/injection) was 118 % of control.
In the case of `Oc1cc(CN(CCCl)CCCl)c(O)cc1CN(CCCl)CCCl`, the T/C (dose: 0.63 mg/kg/injection) is reported as 116 % of control, the T/C (dose: 1.25 mg/kg/injection) is reported as 100 % of control and 116 % of control and the T/C (dose: 2.5 mg/kg/injection) is reported as 100 % of control and 116 % of control. For the same compound, the T/C (dose: 5.0 mg/kg/injection) was 100 % of control and 116 % of control and the T/C (dose: 10.0 mg/kg/injection) was 110 % of control.
